These results are taken from PubChem BioAssay AID328 (DTP/NCI, 2004).

Several values for one entry are separate records, joined by “and”; a condition that tells them apart may be missing. Equal values may be shown once. Inconclusive results and toxic doses are left out. Non-standard residues stand in square brackets, D forms with d. Residues, ends and D or L forms follow the SMILES beside them. Ac5c = NC1(C(=O)O)CCCC1

This test relates to BDF1 mice, P388 leukemia ip, median survival T/C. In words: NCI In Vivo Anticancer Drug Screen. Data for tumor model P388 Leukemia (intraperitoneal) in B6D2F1 (BDF1) mice. The note with it: endpoint: median survival time, higher = longer survival. An outline of the steps: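 Compound-treated tumour-bearing mice were compared with vehicle-treated controls. Survival was recorded, and the value is the treated-group measurement divided by the control-group measurement (T/C).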

[1] abbreviates: dose: 200.0 mg/kg/injection, schedule: Q01DX009 (ip), vehicle: saline.
Where [2] appears, read: dose: 25.0 mg/kg/injection, schedule: Q01DX009 (ip), vehicle: saline.
[3] abbreviates: dose: 100.0 mg/kg/injection, schedule: Q01DX009 (ip), vehicle: Klucel (hydroxypropylcellulose) (HPC).
Setting [4] is: dose: 100.0 mg/kg/injection, schedule: Q04DX003 (ip), vehicle: Klucel (hydroxypropylcellulose) (HPC).
Where [5] appears, read: dose: 200.0 mg/kg/injection, schedule: Q01DX009 (ip), vehicle: Klucel (hydroxypropylcellulose) (HPC).
The mark [6] stands for this setting: dose: 200.0 mg/kg/injection, schedule: Q04DX003 (ip), vehicle: Klucel (hydroxypropylcellulose) (HPC).
The mark [7] stands for this setting: dose: 400.0 mg/kg/injection, schedule: Q01DX009 (ip), vehicle: Klucel (hydroxypropylcellulose) (HPC).
Where [8] appears, read: dose: 400.0 mg/kg/injection, schedule: Q04DX003 (ip), vehicle: Klucel (hydroxypropylcellulose) (HPC).
Setting [9] is: dose: 100.0 mg/kg/injection, schedule: Q01DX009 (ip), vehicle: saline.

As to `O=C(O)CCC(=O)O`, the T/C was 101 % of control and 122 % of control and 100 % of control (dose: 10.0 mg/kg/injection, schedule: Q01DX009 (ip), vehicle: saline); 111 % of control and 98 % of control (dose: 10.0 mg/kg/injection, schedule: Q01DX009 (ip), vehicle: water); 105 % of control and 115 % of control and 106 % of control (dose: 20.0 mg/kg/injection, schedule: Q01DX009 (ip), vehicle: saline); 117 % of control and 120 % of control (dose: 20.0 mg/kg/injection, schedule: Q01DX009 (ip), vehicle: water); 105 % of control and 120 % of control (dose: 25.0 mg/kg/injection, schedule: Q01DX009 (ip), vehicle: other); 109 % of control and 108 % of control (dose: 40.0 mg/kg/injection, schedule: Q01DX009 (ip), vehicle: saline). Besides, the T/C is 124 % of control and 100 % of control (dose: 40.0 mg/kg/injection, schedule: Q01DX009 (ip), vehicle: water); 103 % of control and 102 % of control (dose: 50.0 mg/kg/injection, schedule: Q01DX009 (ip), vehicle: other); 108 % of control and 117 % of control (dose: 80.0 mg/kg/injection, schedule: Q01DX009 (ip), vehicle: saline); 115 % of control and 117 % of control (dose: 80.0 mg/kg/injection, schedule: Q01DX009 (ip), vehicle: water); 102 % of control and 119 % of control (dose: 100.0 mg/kg/injection, schedule: Q01DX009 (ip), vehicle: other); 114 % of control and 110 % of control (dose: 160.0 mg/kg/injection, schedule: Q01DX009 (ip), vehicle: saline). Also, the T/C runs as follows: (dose: 160.0 mg/kg/injection, schedule: Q01DX009 (ip), vehicle: water) 98 % of control and 124 % of control; (dose: 200.0 mg/kg/injection, schedule: Q01DX009 (ip), vehicle: other) 110 % of control; under setting [1], 99 % of control and 115 % of control.
For `Cn1cnc([N+](=O)[O-])c1[Se]c1ncnc2c1ncn2C1OC(CO)C(O)C1O` (stereo not given), the T/C is, setting by setting: (dose: 6.25 mg/kg/injection, schedule: Q01DX009 (ip), vehicle: saline) 105 % of control; (dose: 12.5 mg/kg/injection, schedule: Q01DX009 (ip), vehicle: saline) 113 % of control; (dose: 12.5 mg/kg/injection, schedule: Q04DX003 (ip), vehicle: saline) 113 % of control; under setting [2], 102 % of control; (dose: 25.0 mg/kg/injection, schedule: Q04DX003 (ip), vehicle: saline) 100 % of control and 104 % of control; (dose: 50.0 mg/kg/injection, schedule: Q04DX003 (ip), vehicle: saline) 100 % of control and 113 % of control. In addition, the T/C is, setting by setting: (dose: 100.0 mg/kg/injection, schedule: Q04DX003 (ip), vehicle: saline) 100 % of control; (dose: 200.0 mg/kg/injection, schedule: Q04DX003 (ip), vehicle: saline) 100 % of control.
`CCOc1ccc2nc(S(N)(=O)=O)sc2c1`: the T/C by setting is: under setting [3], 114 % of control; under setting [4], 104 % of control; under setting [5], 114 % of control; under setting [6], 104 % of control; under setting [7], 109 % of control; under setting [8], 95 % of control.
As for `CCOC(=O)CCN1CC(C)OC(C)C1` (stereo not given), the T/C under setting [9] was 100 % of control; the T/C under setting [1] is 109 % of control; the T/C (dose: 400.0 mg/kg/injection, schedule: Q01DX009 (ip), vehicle: saline) is 100 % of control.
Take `C1O[C@@H]1[C@H]1CO1`: the T/C is, setting by setting: under setting [2], 150 % of control; (dose: 37.5 mg/kg/injection, schedule: Q01DX009 (ip), vehicle: saline) 186 % of control.
As to `CCNC(=NC)c1ccc(NC(=O)c2ccc(C(=O)Nc3ccc(C(=NC)NCC)cc3)cc2)cc1`, the T/C is, setting by setting: (dose: 3.9 mg/kg/injection, schedule: Q01DX009 (ip), vehicle: saline with Tween-80) 118 % of control; (dose: 4.0 mg/kg/injection, schedule: Q01DX009 (ip), vehicle: saline with Tween-80) 179 % of control; (dose: 9.0 mg/kg/injection, schedule: Q01DX009 (ip), vehicle: saline with Tween-80) 109 % of control.
In the case of `COC1=C(NCc2ccccc2)C(=O)C(OC)=C(NCc2ccccc2)C1=O`, the T/C under setting [3] is 90 % of control; the T/C under setting [4] is 95 % of control; the T/C under setting [5] is 100 % of control; the T/C under setting [6] was 86 % of control; the T/C under setting [7] is 100 % of control; the T/C under setting [8] is 95 % of control.
With `COc1cc(/C=C2/CCCCC2=O)ccc1O`, the T/C was 104 % of control (dose: 100.0 mg/kg/injection, schedule: Q01DX001 (ip), vehicle: other); 95 % of control (dose: 200.0 mg/kg/injection, schedule: Q01DX001 (ip), vehicle: other); 104 % of control (dose: 400.0 mg/kg/injection, schedule: Q01DX001 (ip), vehicle: other).
`CCOC1(c2ccccc2)c2cc(Cl)ccc2NC(=O)N1CC` (stereo not given): the T/C was 101 % of control (dose: 50.0 mg/kg/injection, schedule: Q01DX009 (ip), vehicle: saline with Tween-80); 98 % of control (dose: 100.0 mg/kg/injection, schedule: Q01DX009 (ip), vehicle: saline with Tween-80); 94 % of control (dose: 200.0 mg/kg/injection, schedule: Q01DX009 (ip), vehicle: saline with Tween-80).
Consider `Clc1ccc(-c2cc(=[N+]3CCC4(CC3)SSC3(CC[N+](=c5cc(-c6ccc(Cl)cc6)ss5)CC3)S4)ss2)cc1` (stereo not given), for which the T/C runs as follows: (dose: 25.0 mg/kg/injection, schedule: Q01DX009 (ip), vehicle: water) 110 % of control; (dose: 25.0 mg/kg/injection, schedule: Q04DX003 (ip), vehicle: water) 94 % of control; (dose: 50.0 mg/kg/injection, schedule: Q01DX009 (ip), vehicle: water) 121 % of control; (dose: 50.0 mg/kg/injection, schedule: Q04DX003 (ip), vehicle: water) 101 % of control; (dose: 100.0 mg/kg/injection, schedule: Q04DX003 (ip), vehicle: water) 92 % of control; (dose: 200.0 mg/kg/injection, schedule: Q01DX009 (ip), vehicle: water) 121 % of control. The T/C (dose: 200.0 mg/kg/injection, schedule: Q04DX003 (ip), vehicle: water) is 97 % of control; the T/C (dose: 400.0 mg/kg/injection, schedule: Q01DX009 (ip), vehicle: water) is 121 % of control; the T/C (dose: 400.0 mg/kg/injection, schedule: Q04DX003 (ip), vehicle: water) is 98 % of control.
On to `NCC(=O)NC1(C(=O)O)CCCC1` (H-Gly-[Ac5c]-OH), for which the T/C is, setting by setting: under setting [9], 113 % of control; under setting [1], 90 % of control.
For the compound `CCC(C)(O)C#CC#CC(C)(O)CC` (stereo not given), the T/C is, setting by setting: (dose: 12.5 mg/kg/injection, schedule: Q01DX009 (ip), vehicle: Klucel (hydroxypropylcellulose) (HPC)) 100 % of control; (dose: 12.5 mg/kg/injection, schedule: Q04DX003 (ip), vehicle: Klucel (hydroxypropylcellulose) (HPC)) 100 % of control; (dose: 25.0 mg/kg/injection, schedule: Q01DX009 (ip), vehicle: Klucel (hydroxypropylcellulose) (HPC)) 100 % of control; (dose: 25.0 mg/kg/injection, schedule: Q04DX003 (ip), vehicle: Klucel (hydroxypropylcellulose) (HPC)) 90 % of control; (dose: 50.0 mg/kg/injection, schedule: Q01DX009 (ip), vehicle: Klucel (hydroxypropylcellulose) (HPC)) 113 % of control; (dose: 50.0 mg/kg/injection, schedule: Q04DX003 (ip), vehicle: Klucel (hydroxypropylcellulose) (HPC)) 95 % of control.
`Cc1ccc2c(c1)=N/C(=N\c1nc(O)c(O)[nH]1)N=2`: the T/C by setting is: (dose: 60.0 mg/kg/injection, schedule: Q01DX009 (ip), vehicle: Klucel (hydroxypropylcellulose) (HPC)) 98 % of control; (dose: 66.0 mg/kg/injection, schedule: Q01DX009 (ip), vehicle: Klucel (hydroxypropylcellulose) (HPC)) 106 % of control; under setting [3], 103 % of control and 118 % of control; under setting [4], 104 % of control; (dose: 140.0 mg/kg/injection, schedule: Q01DX009 (ip), vehicle: Klucel (hydroxypropylcellulose) (HPC)) 97 % of control; (dose: 150.0 mg/kg/injection, schedule: Q01DX009 (ip), vehicle: Klucel (hydroxypropylcellulose) (HPC)) 168 % of control. Further, the T/C was 116 % of control under setting [5], 100 % of control under setting [6], 111 % of control under setting [7] and 95 % of control under setting [8].
Consider `COc1ccc(/C=C/NC=O)cc1`, for which the T/C by setting is: (dose: 50.0 mg/kg/injection, schedule: Q04DX003 (ip), vehicle: other) 105 % of control; (dose: 100.0 mg/kg/injection, schedule: Q04DX003 (ip), vehicle: other) 112 % of control; (dose: 200.0 mg/kg/injection, schedule: Q04DX003 (ip), vehicle: other) 112 % of control; (dose: 400.0 mg/kg/injection, schedule: Q04DX003 (ip), vehicle: other) 91 % of control.
